Experiments:
[1] = tested on: bleomycin (BLM)-induced model of pulmonary fibrosis; assay: Lung inflammation score, bleomycin-induced pulmonary fibrosis model; assay type: in vivo; conditions: BLM-injured mice, treatment days 22-28
Protocol: (§1) The following is relevant to Example 10. A bleomycin (BLM)-induced model of pulmonary fibrosis was established in mice (n=49). Mice were intranasally (IN) administered with 20 μg of bleomycin sulphate (Hospira, Melbourne, Victoria, Australia) in 50 μl of saline (equivalent to 400 μg/ml; 25 μl per nare) on days 0 and 7. For control mice (n=7), however, instead of BLM, they were given IN administration (50 μL per mouse) of 0.9% w/v saline on days 0 and 7. All mice were then left untreated for a further two weeks (until day 21).
(§2) On day 22 (1 day following completion of induction of the BLM-induced pulmonary fibrosis model), mice were lightly anaesthetized with isoflurane (Baxter Health Care, NSW, Australia) and held in a semi-supine position while IN administration of the appropriate treatment took place. The following treatments were administered daily or once-weekly to mice, from days 22-28.
(§3) BLM alone (injury control group): a-sub-group of mice (n=7) received 50 μL of phosphate buffered saline (PBS; the vehicle for Pirfenidone, AECs and AEC-derived exosomes; 25 μL per nare) daily, using an automatic pipette from days 22-28,
(§4) Pirfenidone: a separate sub-group of mice (n=7) received 1 mg of Pirfenidone (Tocris Bioscience, Noble Park, Victoria, Australia) per day (equivalent to 50 mg/kg/day) by twice daily oral gavage, from days 22-28. […]

[2] = tested on: bleomycin (BLM)-induced model of pulmonary fibrosis; assay: Interstitial fibrosis, bleomycin-induced pulmonary fibrosis model; assay type: in vivo; conditions: BLM-injured mice, treatment days 22-28
Protocol: as §1, §2, §3, §4

[3] = tested on: bleomycin (BLM)-induced model of pulmonary fibrosis; assay: Subepithelial ECM/collagen deposition, bleomycin-induced pulmonary fibrosis model; assay type: in vivo; conditions: BLM-injured mice, treatment days 22-28
Protocol: as §1, §2, §3, §4

[4] = tested on: chronic model of ovalbumin (OVA)-induced AAD; assay: Subepithelial collagen deposition (Masson's trichrome), chronic OVA-induced AAD model; assay type: in vivo, Balb/c mice; conditions: OVA-treated mice; OVA alone 26.26±1.37, saline 8.07±0.58
Protocol: (§5) To assess the individual vs combined effects of MSCs, AECs and RLX (serelaxin) in chronic AAD, a chronic model of ovalbumin (OVA)-induced AAD was established in mice (n=36). Mice were sensitized with two i.p. injections of 10 μg of Grade V chicken egg OVA (Sigma-Aldrich, Mo., USA) and 400 μg of aluminium potassium sulphate adjuvant (alum; AJAX Chemicals, NSW, Australia) in 500 μl of 0.9% w/v normal saline solution (Baxter Health Care, NSW, Australia) on day 0 and day 14. They were then challenged by whole body inhalation exposure (nebulization) to aerosolized OVA (2.5% w/v in 0.9% w/v normal saline) for thirty minutes, three times a week, between days 21 and 63, using an ultrasonic nebulizer (Omron NE-U07; Omron, Kyoto, Japan). Control mice (n=6) were given i.p injections of 500 μl 0.9% w/v saline and nebulized with 0.9% w/v saline instead of OVA.
(§6) On day 64 (1 day following completion of induction of the chronic AAD model), mice were lightly anaesthetized with isoflurane (Baxter Health Care, NSW, Australia) and held in a semisupine position while intranasal administration of the appropriate treatment took place. […]

[5] = tested on: goblet cells; assay: Goblet cell metaplasia (ABPAS staining), chronic OVA-induced AAD model; assay type: in vivo, Balb/c mice; conditions: OVA-treated mice; OVA alone 4.83±0.20, saline 1.62±0.32
Protocol: as §5, §6

[6] = tested on: chronic model of ovalbumin (OVA)-induced AAD; assay: Epithelial thickness (Masson's trichrome), chronic OVA-induced AAD model; assay type: in vivo, Balb/c mice; conditions: relative to BM length; OVA-treated mice; OVA alone 21.20±0.60, saline 16.89±0.76
Protocol: as §5, §6

[7] = tested on: chronic model of ovalbumin (OVA)-induced AAD; assay: AHR by invasive plethysmography (methacholine), chronic OVA-induced AAD model; assay type: in vivo, Balb/c mice; conditions: airway resistance to nebulized methacholine; vs OVA group
Protocol: as §5, with “OVA. […]” for “OVA.”
On day 78 (24 hours after the final intranasal administration of PBS or various treatments detailed), mice were anesthetized with an i.p injection of ketamine 10 mg/kg and xylazine 2 mg/kg BW (in 0.9% w/v saline). […] The airway resistance of each mouse was then measured (reflecting changes in AHR) in response to increasing doses of nebulized acetyl-β-methylcholine chloride (methacholine; Sigma Aldrich, Mo., USA), delivered intratracheally, from 3.125-50 mg/ml over 5 doses, to elicit bronchoconstriction. […]

[8] = tested on: thymic stromal lymphopoietin (TSLP); assay: TSLP immunohistochemistry (epithelial damage), chronic OVA-induced AAD model; assay type: in vivo, Balb/c mice; conditions: OVA-treated mice; OVA alone 4.61±0.53, saline 1.00±0.30
Protocol: (§7) To assess the individual vs combined effects of MSCs, AECs and RLX (serelaxin) in chronic AAD, a chronic model of ovalbumin (OVA)-induced AAD was established in mice (n=36). Mice were sensitized with two i.p. injections of 10 μg of Grade V chicken egg OVA (Sigma-Aldrich, Mo., USA) and 400 μg of aluminium potassium sulphate adjuvant (alum; AJAX Chemicals, NSW, Australia) in 500 μl of 0.9% w/v normal saline solution (Baxter Health Care, NSW, Australia) on day 0 and day 14. […]
(§8) IHC was used to detect TGF-β1 (using a polyclonal antibody; sc-146; Santa Cruz Biotechnology, Santa Cruz, Calif., USA; 1:1000 dilution), α-smooth muscle actin (α-SMA; a marker of myofibroblast differentiation; using a monoclonal antibody; M0851; DAKO Antibodies, Glostrup, Denmark; 1:200 dilution) and thymic stromal lymphopoietin (TSLP; a marker for epithelial damage; using a polyclonal antibody; ABT330; EMD Millipore Corp'. Temecula, Calif., USA; 1:1000 dilution). Primary antibody staining was detected using the DAKO EnVision anti-rabbit or anti-mouse kits and 3,3′-Diaminobenzidine (DAB) chromogen, while negative controls, which were exposed to the EnVision kits in the absence of any primary antibody, were also included. […]

[9] = tested on: chronic model of ovalbumin (OVA)-induced AAD; assay: Peri-bronchial inflammation score, chronic OVA-induced AAD model; assay type: in vivo, Balb/c mice; conditions: scale 0 to 4; OVA-treated mice, intranasal treatment days 64-77; OVA alone 1.70±0.60, saline 0.15±0.40
Protocol: Six-to-eight week-old female Balb/c mice were obtained from Monash Animal Services (Monash University, Clayton, Victoria, Australia) and housed under a controlled environment, on a 12 hour light/12 hour dark lighting cycle with free access to water and lab chow (Barastock Stockfeeds, Pakenham, Victoria, Australia). All mice were provided an acclimatization period of 4-5 days before any experimentation.
as §5, with “OVA. […]” for “OVA.”

[10] = tested on: TGF-β1; assay: Airway epithelial TGF-β1 immunohistochemistry, chronic OVA-induced AAD model; assay type: in vivo, Balb/c mice; conditions: relative to saline-treated controls expressed as 1; OVA alone 10.65±0.81
Protocol: as §7, §8

[11] = tested on: chronic model of ovalbumin (OVA)-induced AAD; assay: Hydroxyproline assay of total lung collagen concentration, chronic OVA-induced AAD model; assay type: in vivo, Balb/c mice; conditions: collagen content/dry weight, OVA alone 3.82±0.10, saline 2.84±0.11
Protocol: as §5, with “OVA. […]” for “OVA.”
The second largest lung lobe from each mouse was processed as previously described (Royce et al. (2009) supra; Royce et al. (2014) supra; Royce et al. (2015) supra) for the measurement of hydroxyproline content, which was determined from a standard curve of purified trans-4-hydroxy-L-proline (Sigma-Aldrich). […]

[12] = tested on: α-SMA-stained myofibroblasts; assay: Subepithelial myofibroblast accumulation (α-SMA IHC), chronic OVA-induced AAD model; assay type: in vivo, Balb/c mice; conditions: OVA-treated mice; OVA alone 1.72±0.07, saline 0.44±0.13
Protocol: as §7, §8

Compound	bleomycin-induced lung inflammation (inflammation score) [1]	bleomycin-induced increase in interstitial fibrosis [2]	bleomycin-induced increase in subepithelial ECM/collagen deposition [3]	subepithelial collagen (relative to basement membrane length) [4]	goblet cell count [5]	epithelial thickness [6]	decrease of AHR [7]	number of TSLP-positive cells within the airway epithelium [8]	peri-bronchial inflammation score [9]	epithelial TGF-β1 expression [10]	total lung collagen concentration [11]	number of α-SMA-stained myofibroblasts in the subepithelial layer [12]
Cc1ccc(=O)n(-c2ccccc2)c1 [pirfenidone, Pirfenidone]	only partially reduce	normalized	no effect	–	–	–	–	–	–	–	–	–
Serelaxin [RLX]	–	–	–	18.27±2.26 μm	5.08±0.25 goblet cells/100 μm BM length	18.19±0.74 μm^2	~50%	3.14±0.34 per 100 μm of BM length	1.55±0.83	5.85±1.42	3.08±0.23%	1.08±0.10 per 100 μm BM length
